Experiments:
[1] = target: T1, Non-receptor tyrosine-protein kinase TYK2 (Homo sapiens, UniProt P29597); test: Inhibition of TYK2 in HEK-Blue IL-23 cells pretreated for 60 mins followed by IL-23 stimulation for 22 to 24 hrs by Quanti-Blue based SEAP assay; type: cell-based
[2] = target: T1, Non-receptor tyrosine-protein kinase TYK2; test: Inhibition of TYK2 in HEK-Blue alpha/beta cells pretreated for 60 mins followed by IFN-alpha stimulation for 16 to 18 hrs by Quanti-Blue based SEAP assay; type: cell-based

T1 sequence (P29597 whole entry): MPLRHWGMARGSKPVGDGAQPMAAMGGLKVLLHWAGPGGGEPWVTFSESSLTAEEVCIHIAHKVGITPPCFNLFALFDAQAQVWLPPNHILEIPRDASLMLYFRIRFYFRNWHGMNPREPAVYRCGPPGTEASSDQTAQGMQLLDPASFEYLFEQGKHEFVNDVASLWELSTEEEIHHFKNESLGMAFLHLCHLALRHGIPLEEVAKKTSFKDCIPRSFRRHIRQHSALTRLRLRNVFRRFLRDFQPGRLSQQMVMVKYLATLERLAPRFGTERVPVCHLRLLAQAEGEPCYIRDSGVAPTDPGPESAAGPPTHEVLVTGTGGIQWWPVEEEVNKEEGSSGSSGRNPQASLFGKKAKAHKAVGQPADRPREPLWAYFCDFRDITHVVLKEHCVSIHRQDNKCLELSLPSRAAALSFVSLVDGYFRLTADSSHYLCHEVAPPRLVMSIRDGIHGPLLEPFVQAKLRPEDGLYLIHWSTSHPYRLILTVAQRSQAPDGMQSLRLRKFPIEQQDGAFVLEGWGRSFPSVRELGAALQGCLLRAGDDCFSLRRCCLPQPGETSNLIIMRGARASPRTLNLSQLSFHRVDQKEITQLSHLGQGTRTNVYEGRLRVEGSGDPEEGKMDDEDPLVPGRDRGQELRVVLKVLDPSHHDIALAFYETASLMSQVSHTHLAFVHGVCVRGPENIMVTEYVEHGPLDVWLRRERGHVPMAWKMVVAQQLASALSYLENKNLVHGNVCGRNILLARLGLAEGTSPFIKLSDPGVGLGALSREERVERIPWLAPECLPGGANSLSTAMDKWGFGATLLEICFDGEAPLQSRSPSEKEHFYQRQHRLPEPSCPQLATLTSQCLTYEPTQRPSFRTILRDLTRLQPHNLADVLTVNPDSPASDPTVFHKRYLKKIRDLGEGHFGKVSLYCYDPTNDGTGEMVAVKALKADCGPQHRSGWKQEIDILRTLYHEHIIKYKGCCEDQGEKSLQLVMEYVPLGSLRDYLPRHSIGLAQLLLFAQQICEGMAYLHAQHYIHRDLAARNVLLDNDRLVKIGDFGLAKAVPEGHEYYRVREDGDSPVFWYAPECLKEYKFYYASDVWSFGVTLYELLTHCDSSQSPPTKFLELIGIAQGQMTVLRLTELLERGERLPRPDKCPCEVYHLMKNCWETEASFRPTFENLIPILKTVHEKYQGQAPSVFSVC

IC50 [1] [nM]	IC50 [2] [nM]	Compound
< 30	30	[2H]C([2H])([2H])CC(=O)c1cnc(NC(=O)C2CC2)cc1Nc1cccc2c1N(C)Cc1nc(C)nn1-2
< 30	30	[2H]C([2H])([2H])CC(=O)c1cnc(NC(=O)C2CC2)cc1Nc1nccc2c1N(C)Cc1nn(CC)nc1-2
< 30	< 30	[2H]C([2H])([2H])CC(=O)c1cnc(NC(=O)C2CC2)cc1Nc1cccc2c1N(C)[C@@H](C)c1nn(C)nc1-2
